Columns and labels:
[1] = test system: MDAMB231-BoM-1833-TGL cells; assay: Breast cancer metastasis mouse model (ventricular injection of tumor cells, in vivo imaging, survival); conditions: peptide injected from Day -1 every other day; for metastasis of breast cancer, peptide: mice, IgG negative control, FIGS. 11 and 12
Description: The day before the injection of tumor cells into mice was recorded as Day −1 of the experiment. On Day −1, the mice were fasted for 4 hours, injected with the desired concentration of FC17-7 antibody obtained in Example 1 or IgG (as a negative control), and given food after 2 hours. After the first injection, the mice were injected with antibodies every three days. On Day 0 of the experiment, MDAMB231-BoM-1833-TGL cells were blocked with antibodies according to the method of Example 4. After 6 hours, the cells were digested. The medium was removed, and the cells were washed with PBS once and resuspended in PBS to a concentration of 1×10^6 cells/ml. Then, mice were injected with 1×10^5 tumor cells/100 μl by ventricular injection to establish a mouse metastasis model. Every other week, the mice were subjected to in vivo imaging to record the fluorescence signal data. By establishing a breast cancer metastasis model, periodically administration of the monoclonal antibody FC17-7 prepared in Example 1 was performed in mice.
The day before the injection of tumor cells into mice was recorded as Day −1 of the experiment. On Day −1, the mice were fasted for 4 hours, and injected with the desired concentration of the extracellular loop 1 peptide of TM4SF1 prepared in Example 3 or IgG (as negative control), and given food after 2 hours. After the first injection of the peptide, the mice were injected with the peptide every other day. On Day 0 of the experiment, MDAMB231-BoM-1833-TGL cells were blocked with the peptide according to the method of Example 9. After 6 hours, the cells were digested. The medium was removed, and the cells were washed with PBS once, and resuspended in PBS to a concentration of 1×10^6 cells/ml. For the method of establishing a breast cancer metastasis mouse model, refer to the method in Example 7.

[2] = test system: p-STAT3 (TM4SF1 associated non-classical DDR1 signaling pathway); assay: Western Blotting of p-STAT3, TM4SF1 associated non-classical DDR1 signaling pathway, in cells overexpressing TM4SF1 and DDR1; format: cell-based, human; conditions: Collagen I 10 μg/ml, 12 hours, FIG. 10; for inhibition of P-STAT3 / downstream signal transduction (Western Blotting), peptide: cells overexpressing TM4SF1 and DDR1, PBS negative control
Description: The transfection method has been described in Example 4. 48 hours after transfection, the medium was removed, 2 ml of serum-free DMEM-HG medium containing a certain concentration of FC17-7 antibody obtained in Example 1 or IgG (as a negative control) was added. After incubating the culture dish at 37° C. for 5 minutes, Collagen I was added to the culture dish to a final concentration of 10 μg/ml and cultured for 12 hours. The cells were collected and lysed with IP-RIPA buffer in a refrigerator at 4° C. for 1 h. The lysate was sonicated twice (15 s 30% power), then centrifuged at 12,000 rpm for 30 min. The supernatant was sampled to determine the protein concentration, and the protein concentration of each sample was adjusted to be the same. The sample was subjected to SDS-PAGE electrophoresis, and the proteins were transferred to a membrane by conventional way in Western Blotting, and then stained with the antibody.
The transfection method has been described in Example 4. 48 hours after transfection, the medium was removed, 2 ml of serum-free DMEM-HG medium containing a certain concentration of the extracellular loop 1 peptide of TM4SF1 prepared in Example 3 or PBS (as a negative control) was added. After incubating the culture dish at 37° C. for 5 minutes, Collagen I was added to the culture dish to a final concentration of 10 μg/ml. The cells were cultured for 12 hours and then collected. The cells were lysed with IP-RIPA buffer in a refrigerator at 4° C. for 1 h. The lysate was sonicated twice (15 s 30% power), and then centrifuged at 12,000 rpm for 30 min. The supernatant was sampled to determine the protein concentration, and the protein concentration of each sample was adjusted to be the same. The sample was subjected to SDS-PAGE electrophoresis, and the proteins were transferred to a membrane by a conventional way used in Western Blotting, and then stained with antibody.

[3] = target: T1, interaction of TM4SF1 and DDR1 (Homo sapiens, UniProt P30408); assay: Co-immunoprecipitation / Western Blotting of TM4SF1 and DDR1 co-overexpressed in 293FT cells, Collagen I stimulated; format: cell-based; conditions: 293FT cells co-overexpressing TM4SF1 and DDR1, peptide overexpressed in 293FT cells and purified, Collagen I 10 μg/ml, 6 hours, FIG. 9
T1 construct: expressed in transfected cells; host or cells: 293FT cells
T1 sequence (P30408 1-202): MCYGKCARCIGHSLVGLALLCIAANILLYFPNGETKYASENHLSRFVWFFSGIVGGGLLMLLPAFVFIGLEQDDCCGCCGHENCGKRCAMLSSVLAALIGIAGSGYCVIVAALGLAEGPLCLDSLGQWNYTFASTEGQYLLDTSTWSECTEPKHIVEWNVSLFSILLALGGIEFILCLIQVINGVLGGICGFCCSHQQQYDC
Description: 293FT cells were cultured in DMEM-HG medium and digested with trypsin. The cells were counted and seeded at a density of 1×10^6 cells per dish in 6 cm (diameter) culture dish. The next day, 700 μl of serum-free DMEM-HG medium was respectively added to two centrifuge tubes. 10 μl of P-Pei transfection reagent was added to the first centrifuge tube. 1 μg PQCXIP-hTM4SF1 plasmid and 1 μg PQCXIN-hDDR1 plasmid were added to the second centrifuge tube and mixed well. The resultant from the second centrifuge tube was added to the first centrifuge tube and incubated for 20 min to obtain the transfection mixture. The culture medium of the 293FT cells seeded the day before was removed, and the transfection mixture above was added to the culture dish and incubated for 6 hours. Fresh medium was added to continue the culture. 48 hours after the transfection, the medium was removed, 2 ml of serum-free DMEM-HG medium containing a certain concentration of FC17-7 antibody obtained in Example 1 or IgG (as a negative control) was added. After incubating the culture dish at 37° C. for 5 minutes, Collagen I was added to the culture dish to a final concentration of 10 μg/ml. The cells were cultured for 6 hours and then collected. […] After the elution, the mixture was centrifuged at 3,000 rpm for 2 min to collect the supernatant, and the protein expression was detected by Western Blotting. […]

[4] = listed as small extracellular loop 1 peptide of TM4SF1

## FPNGETKYASENHLSRC [extracellular loop 1 peptide of TM4SF1]
[1]
  metastasis of breast cancer, peptide: significantly inhibit the metastasis of breast cancer
[1]; [4]
  metastasis of breast cancer, peptide: significantly inhibits metastasis of breast cancer
[1]; FIG. 13
  survival time of the mice, peptide: prolong the survival time of the mice
[1]; FIG. 13, listed as small extracellular loop 1 peptide of TM4SF1
  survival time of the mice, peptide: prolongs the survival mice
[2]
  inhibition of P-STAT3 / downstream signal transduction (Western Blotting), peptide: began to inhibit P-STAT3
[2]; [4]
  inhibition of P-STAT3 / downstream signal transduction (Western Blotting), peptide: inhibits downstream signal transduction
[2]; different concentrations of peptide, dose-dependent
  concentration at which the peptide began to inhibit P-STAT3: 9 µg/mL
[3]
  disruption of the interaction between TM4SF1 and DDR1 (co-immunoprecipitation), peptide: significantly disrupt the interaction between TM4SF1 and DDR1
[3]; [4]
  disruption of the interaction between TM4SF1 and DDR1 (co-immunoprecipitation), peptide: disrupts the interaction between TM4SF1 and DDR1
